In patent US4755610A, “Hapalindoles” (priority 1986, dated 1988):
In brackets after ≈: the same amount, converted by molar mass. Like-named read-outs stand apart in the source and are kept apart here.

Columns and labels:
Type in all cases: cell-based
[1] = system: Staphylococcus aureus X1.1; experiment: In vitro antibacterial activity, standard agar-dilution assay
[2] = system: Staphylococcus aureus V41; experiment: as above
[3] = system: Staphylococcus aureus X400; experiment: microbe, parasite or virus in culture
[4] = system: Staphylococcus aureus S13E; experiment: microbe, parasite or virus in culture
[5] = system: Staphylococcus epidermidis EPI1; experiment: In vitro antibacterial activity, standard agar-dilution assay
[6] = system: Staphylococcus epidermidis 222; experiment: as above
[7] = system: Streptococcus pyogenes C203; experiment: as above
[8] = system: Streptococcus pneumoniae Park 1; experiment: as above; details: PARK1
[9] = system: Streptococcus faecium ATCC 9790; experiment: as above; details: Enterococcus faecium, ATCC9790
[10] = system: Streptococcus sp group D 2041; experiment: as above; details: GROUPD2041
[11] = system: Haemophilus influenzae C.L.; experiment: as above
[12] = system: Haemophilus influenzae 76; experiment: as above
Escherichia coli N10 = experiment: as above
Escherichia coli EC14 = experiment: as above
Escherichia coli TEM = experiment: as above
[13] = system: Klebsiella pneumoniae X26; experiment: as above
[14] = system: Klebsiella pneumoniae X68; experiment: as above
[15] = system: Klebsiella pneumoniae KAE; experiment: as above
Salmonella sp. X514 = experiment: as above
Shigella sonnei N9 = experiment: as above
Proteus morganii PR15 = experiment: as above; details: Morganella morganii
[16] = system: Acinetobacter calcoaceticus AC12; experiment: as above
Candida albicans = experiment: In vitro antifungal activity, standard disc-plate assay
[17] = system: Trichophyton mentagrophytes; experiment: as above
[18] = Staphylococcus aureus X1.1, agar dilution, read-out: MIC
[19] = Staphylococcus aureus V41, agar dilution, read-out: MIC
[20] = Staphylococcus epidermidis EPI1, agar dilution, read-out: MIC
[21] = Staphylococcus epidermidis 222, agar dilution, read-out: MIC
[22] = Streptococcus pyogenes C203, agar dilution, read-out: MIC
[23] = Streptococcus pneumoniae Park 1, agar dilution, read-out: MIC
[24] = Streptococcus faecium ATCC 9790, agar dilution, read-out: MIC
[25] = Streptococcus sp group D 2041, agar dilution, read-out: MIC
[26] = Haemophilus influenzae C.L., agar dilution, read-out: MIC
[27] = Haemophilus influenzae 76, agar dilution, read-out: MIC
[28] = Escherichia coli N10, agar dilution, read-out: MIC
[29] = Escherichia coli EC14, agar dilution, read-out: MIC
[30] = Klebsiella pneumoniae X26, agar dilution, read-out: MIC
[31] = Klebsiella pneumoniae X68, agar dilution, read-out: MIC
[32] = Klebsiella pneumoniae KAE, agar dilution, read-out: MIC
[33] = Salmonella sp. X514, agar dilution, read-out: MIC
[34] = Shigella sonnei N9, agar dilution, read-out: MIC
[35] = Proteus morganii PR15, agar dilution, read-out: MIC
[36] = Acinetobacter calcoaceticus AC12, agar dilution, read-out: MIC
[37] = disc-plate assay, read-out: MIC

SMILES: [C-]#[N+][C@@H]1[C@H](c2c[nH]c3ccccc23)[C@@H](C(=C)C)C[C@@H](Cl)[C@]1(C)C=C [Compound 5, Hapalindole E]
- MIC ([1]; Staphylococcus aureus, X1.1): 4 µg/mL (≈ 11.8 µM)
- MIC ([2]; Staphylococcus aureus, V41): 2 µg/mL (≈ 5.9 µM)
- MIC [3]: 4 µg/mL (≈ 11.8 µM)
- MIC [4]: 2 µg/mL (≈ 5.9 µM)
- MIC ([5]; Staphylococcus epidermidis, EPI1): 2 µg/mL (≈ 5.9 µM)
- MIC ([6]; Staphylococcus epidermidis, 222): 2 µg/mL (≈ 5.9 µM)
- MIC ([7]; Streptococcus pyogenes, C203): > 64 µg/mL
- MIC ([8]; Streptococcus pneumoniae): > 64 µg/mL
- MIC [9]: 64 µg/mL (≈ 189 µM)
- MIC ([10]; Streptococcus): > 64 µg/mL
- MIC ([11]; Haemophilus influenzae): 4 µg/mL (≈ 11.8 µM)
- MIC ([12]; Haemophilus influenzae, 76): 4 µg/mL (≈ 11.8 µM)
- MIC (Escherichia coli N10; Escherichia coli, N10): 16 µg/mL (≈ 47.2 µM)
- MIC (Escherichia coli EC14; Escherichia coli, EC14): 16 µg/mL (≈ 47.2 µM)
- MIC (Escherichia coli TEM): > 64 µg/mL
- MIC ([13]; Klebsiella pneumoniae, X26): > 64 µg/mL
- MIC ([14]; Klebsiella pneumoniae, X68): > 64 µg/mL
- MIC ([15]; Klebsiella pneumoniae): > 64 µg/mL
- MIC (Salmonella sp. X514; Salmonella, SP.X514): > 64 µg/mL
- MIC (Shigella sonnei N9; Shigella sonnei, N9): > 64 µg/mL
- MIC (Proteus morganii PR15; PR15): 32 µg/mL (≈ 94.4 µM)
- MIC ([16]; Acinetobacter calcoaceticus, AC12): > 64 µg/mL
- MIC (Candida albicans): 0.312 µg/mL (≈ 0.921 µM)
- MIC [17]: 0.625 µg/mL (≈ 1.84 µM)

SMILES: C=C[C@@]1(C)[C@H](Cl)C[C@H](C(=C)C)[C@@H](c2c[nH]c3ccccc23)[C@H]1N=C=S [Compound 6, Hapalindole F]
- MIC [1, 18]: 16 µg/mL (≈ 43.1 µM)
- MIC [2, 19]: > 64 µg/mL
- MIC [3]: 32 µg/mL (≈ 86.3 µM)
- MIC [4]: 32 µg/mL (≈ 86.3 µM)
- MIC [5, 20]: 4 µg/mL (≈ 10.8 µM)
- MIC [6, 21]: 4 µg/mL (≈ 10.8 µM)
- MIC [7, 22]: > 64 µg/mL
- MIC [8, 23]: > 64 µg/mL
- MIC [9, 24]: 64 µg/mL (≈ 173 µM)
- MIC [10, 25]: 16 µg/mL (≈ 43.1 µM)
- MIC [11, 26]: > 64 µg/mL
- MIC [12, 27]: > 64 µg/mL
- MIC (Escherichia coli N10; [28]): > 64 µg/mL
- MIC (Escherichia coli EC14; [29]): > 64 µg/mL
- MIC (Escherichia coli TEM): > 64 µg/mL
- MIC [13, 30]: > 64 µg/mL
- MIC [14, 31]: > 64 µg/mL
- MIC [15, 32]: > 64 µg/mL
- MIC (Salmonella sp. X514; [33]): > 64 µg/mL
- MIC (Shigella sonnei N9; [34]): > 64 µg/mL
- MIC (Proteus morganii PR15; [35]): > 64 µg/mL
- MIC [16, 36]: > 64 µg/mL
- MIC (Candida albicans; [37]): > 20 µg/mL
- MIC [17, 37]: > 20 µg/mL

SMILES: [C-]#[N+][C@@H]1[C@@H]2c3c[nH]c4cccc(c34)C(C)(C)[C@H]2C[C@@H](Cl)[C@]1(C)C=C [Compound 7, Hapalindole G]
- MIC [1, 18]: 64 µg/mL (≈ 189 µM)
- MIC [2, 19]: 64 µg/mL (≈ 189 µM)
- MIC [3]: 64 µg/mL (≈ 189 µM)
- MIC [4]: 64 µg/mL (≈ 189 µM)
- MIC [5, 20]: 8 µg/mL (≈ 23.6 µM)
- MIC [6, 21]: 16 µg/mL (≈ 47.2 µM)
- MIC [7, 22]: 16 µg/mL (≈ 47.2 µM)
- MIC [8, 23]: 16 µg/mL (≈ 47.2 µM)
- MIC [9, 24]: > 64 µg/mL
- MIC [10, 25]: > 64 µg/mL
- MIC [11, 26]: 64 µg/mL (≈ 189 µM)
- MIC [12, 27]: 64 µg/mL (≈ 189 µM)
- MIC (Escherichia coli N10; [28]): > 64 µg/mL
- MIC (Escherichia coli EC14; [29]): > 64 µg/mL
- MIC (Escherichia coli TEM): > 64 µg/mL
- MIC [13, 30]: 64 µg/mL (≈ 189 µM)
- MIC [14, 31]: > 64 µg/mL
- MIC [15, 32]: > 64 µg/mL
- MIC (Salmonella sp. X514; [33]): > 64 µg/mL
- MIC (Shigella sonnei N9; [34]): > 64 µg/mL
- MIC (Proteus morganii PR15; [35]): > 64 µg/mL
- MIC [16, 36]: 16 µg/mL (≈ 47.2 µM)
- MIC (Candida albicans; [37]): 10 µg/mL (≈ 29.5 µM)
- MIC [17, 37]: 2.5 µg/mL (≈ 7.38 µM)

SMILES: [C-]#[N+][C@@H]1[C@H]2c3c[nH]c4cccc(c34)C(C)(C)[C@@H]2CC[C@]1(C)C=C [Compound 8, Hapalindole H]
- MIC [1, 18]: > 64 µg/mL
- MIC [2, 19]: > 64 µg/mL
- MIC [3]: > 64 µg/mL
- MIC [4]: > 64 µg/mL
- MIC [5, 20]: 32 µg/mL (≈ 105 µM)
- MIC [6, 21]: 32 µg/mL (≈ 105 µM)
- MIC [7, 22]: 32 µg/mL (≈ 105 µM)
- MIC [8, 23]: 32 µg/mL (≈ 105 µM)
- MIC [9, 24]: > 64 µg/mL
- MIC [10, 25]: > 64 µg/mL
- MIC [11, 26]: > 64 µg/mL
- MIC [12, 27]: > 64 µg/mL
- MIC (Escherichia coli N10; [28]): > 64 µg/mL
- MIC (Escherichia coli EC14; [29]): > 64 µg/mL
- MIC (Escherichia coli TEM): > 64 µg/mL
- MIC [13, 30]: > 64 µg/mL
- MIC [14, 31]: > 64 µg/mL
- MIC [15, 32]: > 64 µg/mL
- MIC (Salmonella sp. X514; [33]): > 64 µg/mL
- MIC (Shigella sonnei N9; [34]): > 64 µg/mL
- MIC (Proteus morganii PR15; [35]): > 64 µg/mL
- MIC [16, 36]: 16 µg/mL (≈ 52.6 µM)
- MIC (Candida albicans; [37]): 10 µg/mL (≈ 32.8 µM)
- MIC [17, 37]: 1.25 µg/mL (≈ 4.11 µM)
